Data reported in patent publication US12162840B2, “Herbicidal compositions” (SYNGENTA PARTICIPATIONS AG, priority 2018, dated 2024).

System: cool season plant species
Assay: B2 Post-emergence efficacy Test 2, cool season plant species
Assay type: in vivo
Details: 15 days after application, 0=no damage, 100=total kill
Outline: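 Plants at 12 days post-sowing were sprayed with active ingredient formulated in IF50 plus 0.2% v/v Genapol XO80, then grown in a glasshouse (24/18 °C or 20/16 °C day/night, 16 h light, 65% humidity). Damage scored 15 days after application on 0–100 scale (100 = total kill).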

## Cc1nn(C)c(=O)c(-c2c(F)ccc(Cl)c2CCc2ccc(F)cc2)c1O [Compound 1.048]
15 g/Ha
  Herbicidal activity (0-100 scale) ALOMY: 20
  Herbicidal activity (0-100 scale) AVEFA: 10
  Herbicidal activity (0-100 scale) BEAVA: 70
  Herbicidal activity (0-100 scale) BROTE: 0
  Herbicidal activity (0-100 scale) BRSNN: 90
  Herbicidal activity (0-100 scale) GALAP: 20
  Herbicidal activity (0-100 scale) HORVW: 10
  Herbicidal activity (0-100 scale) KCHSC: 0
  Herbicidal activity (0-100 scale) LOLPE: 20
  Herbicidal activity (0-100 scale) POAAN: 30
  Herbicidal activity (0-100 scale) POLCO: 60
  Herbicidal activity (0-100 scale) SINAR: 40
  Herbicidal activity (0-100 scale) STEME: 90
  Herbicidal activity (0-100 scale) TRZAW: 0
  Herbicidal activity (0-100 scale) VERPE: 60
30 g/Ha
  Herbicidal activity (0-100 scale) ALOMY: 30
  Herbicidal activity (0-100 scale) AVEFA: 30
  Herbicidal activity (0-100 scale) BEAVA: 80
  Herbicidal activity (0-100 scale) BROTE: 10
  Herbicidal activity (0-100 scale) BRSNN: 90
  Herbicidal activity (0-100 scale) GALAP: 30
  Herbicidal activity (0-100 scale) HORVW: 10
  Herbicidal activity (0-100 scale) KCHSC: 0
  Herbicidal activity (0-100 scale) LOLPE: 40
  Herbicidal activity (0-100 scale) POAAN: 30
  Herbicidal activity (0-100 scale) POLCO: 70
  Herbicidal activity (0-100 scale) SINAR: 80
  Herbicidal activity (0-100 scale) STEME: 90
  Herbicidal activity (0-100 scale) TRZAW: 10
  Herbicidal activity (0-100 scale) VERPE: 80
60 g/Ha
  Herbicidal activity (0-100 scale) ALOMY: 70
  Herbicidal activity (0-100 scale) AVEFA: 60
  Herbicidal activity (0-100 scale) BEAVA: 80
  Herbicidal activity (0-100 scale) BROTE: 20
  Herbicidal activity (0-100 scale) BRSNN: 90
  Herbicidal activity (0-100 scale) GALAP: 50
  Herbicidal activity (0-100 scale) HORVW: 10
  Herbicidal activity (0-100 scale) KCHSC: 10
  Herbicidal activity (0-100 scale) LOLPE: 90
  Herbicidal activity (0-100 scale) POAAN: 80
  Herbicidal activity (0-100 scale) POLCO: 90
  Herbicidal activity (0-100 scale) SINAR: 80
  Herbicidal activity (0-100 scale) STEME: 90
  Herbicidal activity (0-100 scale) TRZAW: 20
  Herbicidal activity (0-100 scale) VERPE: 90
125 g/Ha
  Herbicidal activity (0-100 scale) ALOMY: 80
  Herbicidal activity (0-100 scale) AVEFA: 80
  Herbicidal activity (0-100 scale) BEAVA: 90
  Herbicidal activity (0-100 scale) BROTE: 50
  Herbicidal activity (0-100 scale) BRSNN: 90
  Herbicidal activity (0-100 scale) CHEAL: 70
  Herbicidal activity (0-100 scale) GALAP: 60
  Herbicidal activity (0-100 scale) HORVW: 40
  Herbicidal activity (0-100 scale) KCHSC: 20
  Herbicidal activity (0-100 scale) LOLPE: 90
  Herbicidal activity (0-100 scale) POAAN: 80
  Herbicidal activity (0-100 scale) POLCO: 90
  Herbicidal activity (0-100 scale) SINAR: 90
  Herbicidal activity (0-100 scale) STEME: 100
  Herbicidal activity (0-100 scale) TRZAW: 20
  Herbicidal activity (0-100 scale) VERPE: 80
250 g/Ha
  Herbicidal activity (0-100 scale) ALOMY: 80
  Herbicidal activity (0-100 scale) AVEFA: 90
  Herbicidal activity (0-100 scale) BEAVA: 90
  Herbicidal activity (0-100 scale) BROTE: 60
  Herbicidal activity (0-100 scale) BRSNN: 90
  Herbicidal activity (0-100 scale) CHEAL: 90
  Herbicidal activity (0-100 scale) GALAP: 60
  Herbicidal activity (0-100 scale) HORVW: 40
  Herbicidal activity (0-100 scale) KCHSC: 50
  Herbicidal activity (0-100 scale) LOLPE: 90
  Herbicidal activity (0-100 scale) POAAN: 90
  Herbicidal activity (0-100 scale) POLCO: 90
  Herbicidal activity (0-100 scale) SINAR: 90
  Herbicidal activity (0-100 scale) STEME: 100
  Herbicidal activity (0-100 scale) TRZAW: 50
  Herbicidal activity (0-100 scale) VERPE: 100
500 g/Ha
  Herbicidal activity (0-100 scale) ALOMY: 90
  Herbicidal activity (0-100 scale) AVEFA: 90
  Herbicidal activity (0-100 scale) BEAVA: 90
  Herbicidal activity (0-100 scale) BROTE: 70
  Herbicidal activity (0-100 scale) BRSNN: 90
  Herbicidal activity (0-100 scale) CHEAL: 100
  Herbicidal activity (0-100 scale) GALAP: 80
  Herbicidal activity (0-100 scale) HORVW: 80
  Herbicidal activity (0-100 scale) KCHSC: 80
  Herbicidal activity (0-100 scale) LOLPE: 90
  Herbicidal activity (0-100 scale) POAAN: 90
  Herbicidal activity (0-100 scale) POLCO: 90
  Herbicidal activity (0-100 scale) SINAR: 90
  Herbicidal activity (0-100 scale) STEME: 100
  Herbicidal activity (0-100 scale) TRZAW: 80
  Herbicidal activity (0-100 scale) VERPE: 100
